≈ marks a conversion by molar mass, not a printed value.
Assays:
[1] = test system: ECa-109 cell line; experiment: Cytotoxicity against vincristine resistant human Eca-109 cells incubated for 48 hrs by CCK-8 method relative to control; format: functional; parameters: concentration or dose not given beside the values
[2] = test system: ECa-109 cell line; experiment: Reversal of vincristine-resistance in human Eca-109 cells assessed as fold reversal by measuring cell viability incubated for 48 hrs by CCK-8 method relative to vincristine alone; format: functional
[3] = test system: ECa-109 cell line; experiment: Reversal of VCR -resistance in human Eca-109 cells assessed as cell viability at 5 uM incubated for 48 hrs by CCK-8 method (reference value: 6830.0+/-537.0 nM); format: functional, cell-based; settings: ECa-109, 48 h
[4] = test system: ECa-109 cell line; experiment: Reversal of vincristine-resistance in human Eca-109 cells assessed as fold reversal by measuring cell viability at 5 uM incubated for 48 hrs by CCK-8 method relative to vincristine alone; format: functional
[5] = Toxicity in nude mouse assessed as change in body weight at 0.2 mg/kg administered every 2 days for 21 days; format: organism-based; settings: in vivo, 48 h, time 2 day
[6] = biological target: ATP-dependent translocase ABCB1 (Homo sapiens, UniProt P08183); experiment: Binding affinity to P-gp in vincristine resistant human Eca-109 cells assessed as stabilization of protein at 67 degree C at 100 uM incubated for 30 mins by thermal shift assay; format: cell-based; settings: eca-109, 0.5 h
[7] = Solubility of the compound in water at 25 degree C by shake flask method based UV-spectrophotometric method; format: physicochemical
[8] = test system: ECa-109 cell line; experiment: Induction of apoptosis in vincristine resistant human Eca-109 cells assessed as viable cells at 5 uM incubated for 24 hrs by AnnexinV-FITC/PI staining based flow cytometric analysis (reference value: 90.3%); format: functional; settings: read-out: Activity
[9] = test system: ECa-109 cell line; experiment: Induction of apoptosis in vincristine resistant human Eca-109 cells assessed as early apoptotic cells at 5 uM incubated for 24 hrs by AnnexinV-FITC/PI staining based flow cytometric analysis (reference value: 2.30%); format: functional
[10] = test system: ECa-109 cell line; experiment: Induction of apoptosis in vincristine resistant human Eca-109 cells assessed as late apoptotic cells at 5 uM incubated for 24 hrs by AnnexinV-FITC/PI staining based flow cytometric analysis (reference value: 7.19%); format: functional
[11] = test system: ECa-109 cell line; experiment: Induction of apoptosis in vincristine resistant human Eca-109 cells assessed as necrotic cells at 5 uM incubated for 24 hrs by AnnexinV-FITC/PI staining based flow cytometric analysis (reference value: 0.25%); format: functional
[12] = test system: ECa-109 cell line; experiment: Induction of apoptosis in vincristine resistant human Eca-109 cells assessed as viable cells at 5 uM incubated for 24 hrs in presence of vincristine by AnnexinV-FITC/PI staining based flow cytometric analysis (reference value: 89.2%); format: functional; settings: read-out: Activity
[13] = test system: ECa-109 cell line; experiment: Induction of apoptosis in vincristine resistant human Eca-109 cells assessed as early apoptotic cells at 5 uM incubated for 24 hrs in presence of vincristine by AnnexinV-FITC/PI staining based flow cytometric analysis (reference value: 4.43%); format: functional
[14] = test system: ECa-109 cell line; experiment: Induction of apoptosis in vincristine resistant human Eca-109 cells assessed as late apoptotic cells at 5 uM incubated for 24 hrs in presence of vincristine by AnnexinV-FITC/PI staining based flow cytometric analysis (reference value: 6.01%); format: functional
[15] = test system: ECa-109 cell line; experiment: Induction of apoptosis in vincristine resistant human Eca-109 cells assessed as necrotic cells at 5 uM incubated for 24 hrs in presence of vincristine by AnnexinV-FITC/PI staining based flow cytometric analysis (reference value: 0.35%); format: functional

ATP-dependent translocase ABCB1, sequence (P08183 whole entry): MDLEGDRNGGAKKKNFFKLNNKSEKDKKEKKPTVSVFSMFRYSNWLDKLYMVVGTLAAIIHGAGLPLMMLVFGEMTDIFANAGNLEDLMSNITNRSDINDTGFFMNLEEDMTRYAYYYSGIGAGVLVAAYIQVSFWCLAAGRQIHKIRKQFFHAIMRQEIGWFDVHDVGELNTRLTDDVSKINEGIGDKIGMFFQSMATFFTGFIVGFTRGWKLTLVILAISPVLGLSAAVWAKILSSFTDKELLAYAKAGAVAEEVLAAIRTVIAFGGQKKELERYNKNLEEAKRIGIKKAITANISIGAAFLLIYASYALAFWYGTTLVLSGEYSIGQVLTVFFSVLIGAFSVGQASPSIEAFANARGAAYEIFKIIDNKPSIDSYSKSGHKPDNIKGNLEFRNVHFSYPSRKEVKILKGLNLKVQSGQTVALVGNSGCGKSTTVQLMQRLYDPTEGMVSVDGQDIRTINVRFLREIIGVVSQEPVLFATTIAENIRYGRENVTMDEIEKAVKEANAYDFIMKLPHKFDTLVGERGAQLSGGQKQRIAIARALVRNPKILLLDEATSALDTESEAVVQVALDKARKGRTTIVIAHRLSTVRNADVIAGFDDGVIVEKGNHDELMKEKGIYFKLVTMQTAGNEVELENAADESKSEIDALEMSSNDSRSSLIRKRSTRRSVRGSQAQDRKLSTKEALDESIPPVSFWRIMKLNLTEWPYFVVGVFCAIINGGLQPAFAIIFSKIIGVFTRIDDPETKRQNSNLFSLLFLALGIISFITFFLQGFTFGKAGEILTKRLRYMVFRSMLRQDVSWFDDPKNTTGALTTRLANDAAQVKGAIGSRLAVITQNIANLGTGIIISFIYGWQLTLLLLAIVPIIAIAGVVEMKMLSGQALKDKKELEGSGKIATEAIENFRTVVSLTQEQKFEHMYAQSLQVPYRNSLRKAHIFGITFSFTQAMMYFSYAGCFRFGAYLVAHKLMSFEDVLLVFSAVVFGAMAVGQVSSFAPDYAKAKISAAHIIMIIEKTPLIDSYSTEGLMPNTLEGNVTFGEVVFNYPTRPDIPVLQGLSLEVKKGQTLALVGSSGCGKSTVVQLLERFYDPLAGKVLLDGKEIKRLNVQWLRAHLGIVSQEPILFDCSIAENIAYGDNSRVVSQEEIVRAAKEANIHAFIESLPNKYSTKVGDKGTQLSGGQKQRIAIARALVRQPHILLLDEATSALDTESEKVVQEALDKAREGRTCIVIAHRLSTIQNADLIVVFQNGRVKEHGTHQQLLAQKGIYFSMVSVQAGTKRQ

| SMILES | Activity [1] [%] | fold change (FC) [2] | further results |
| --- | --- | --- | --- |
| COc1cc(Br)c(CC2c3cc(OC)c(OC)cc3CCN2C)cc1OC (stereo unspecified) | 93.4 | 16 | – |
| COc1cc2c(cc1OC)C(Cc1ccc(OC)c(OCc3ccccc3)c1)N(Cc1ccccc1)CC2 (stereo unspecified) | 68.8 | 42.7 | – |
| COc1cc2c(cc1OC)C(Cc1ccc(OC)c(OCC3CCCCC3)c1)N(C)CC2 (stereo unspecified) | 88.1 | 140.3 | – |
| COc1cc2c(cc1OC)C(Cc1ccc(OC)c(OCCC3CCCCC3)c1)N(C)CC2 (stereo unspecified) | 81 | 143.3 | – |
| COc1cc2c(cc1OC)C(Cc1ccccc1Cl)N(C)CC2 (stereo unspecified) | 96.3 | 13.4 | – |
| CCOC(=O)CCCOc1cc(CC2c3cc(OC)c(OC)cc3CCN2C)ccc1OC (stereo unspecified) | 86.7 | 219.3 | – |
| CCC1c2cc(OC)c(OC)cc2CCN1C (stereo unspecified) | 90.6 | 4.2 | – |
| COc1ccc2cc1Oc1ccc(cc1)C[C@H]1c3c(cc4c(c3Oc3cc5c(cc3OC)CCN(C)[C@@H]5C2)OCO4)CCN1C [CEPHARANTHINE] | – | – | IC50 [3]: 437 nM; fold change (FC) [4]: 15.6 |
| COc1cc2c(cc1OC)C(CC(C)C)N(C)CC2 (stereo unspecified) | 96.1 | 3.3 | – |
| COc1ccc(C[C@@H]2c3cc(Oc4cc(C[C@@H]5c6cc(OC)c(OC)cc6CCN5C)ccc4O)c(OC)cc3CCN2C)cc1 [NEFERINE] | – | – | IC50 [3]: 3790 nM; fold change (FC) [4]: 1.8 |
| COc1ccc(CC2c3cc(OC)c(OC)cc3CCN2C)cc1OC (stereo unspecified) [LAUDANOSINE] | 90.7 | 12.9 | – |
| COc1cc2c(cc1OC)C(Cc1ccccc1)N(C)CC2 (stereo unspecified) | 93.7 | 4.4 | – |
| COc1cc2c(cc1OC)C(Cc1ccc(O)cc1)N(C)CC2 (stereo unspecified) | 98.1 | 2.8 | – |
| CCOc1ccc(CC2c3cc(OC)c(OC)cc3CCN2C)cc1OC (stereo unspecified) | 88 | 11.7 | – |
| COc1cc2c(cc1OC)CN(C)CC2 | 90.9 | 7.7 | – |
| CC[C@]1(O)C[C@H]2CN(CCc3c([nH]c4ccccc34)[C@@](C(=O)OC)(c3cc4c(cc3OC)N(C=O)[C@H]3[C@@](O)(C(=O)OC)[C@H](OC(C)=O)[C@]5(CC)C=CCN6CC[C@]43[C@@H]65)C2)C1 [VINCRISTINE] | – | – | Activity [5]: Non-Toxic |
| COc1cc2c(cc1OC)C(=O)N(C)CC2 | 98.4 | 3.2 | – |
| COc1cc2c(cc1OC)C(Cc1ccc(OC)c(OCC3CCOCC3)c1)N(C)CC2 (stereo unspecified) | 94.4 | 126.8 | – |
| COc1cc2c(cc1OC)C(Cc1ccc(OCCC3CCCCC3)c(OC)c1)N(C)CC2 (stereo unspecified) | 54.3 | 166.4 | – |
| COc1cc2c(cc1OC)C(Cc1cccc(O)c1)N(C)CC2 (stereo unspecified) | 99.2 | 4.3 | – |
| COc1cc2c(cc1OC)C(CC(F)(F)F)N(C)CC2 (stereo unspecified) | 88.2 | 3 | – |
| COc1cc2c(cc1OC)C1Cc3ccc(OC)c(O)c3CN1CC2 (stereo unspecified) | 74.2 | 1.2 | – |
| COc1cc2c(cc1OC)C(Cc1ccc(C#N)cc1)N(C)CC2 (stereo unspecified) | 99.8 | 3.6 | – |

| SMILES | Activity [1] [%] | fold change (FC) [2] | further results |
| --- | --- | --- | --- |
| CN1CCc2cc(Br)ccc2C1=O | 88.6 | 2 | – |
| COc1cc2c(cc1OC)C(Cc1cccc(Cl)c1)N(C)CC2 (stereo unspecified) | 89 | 23.6 | – |
| COc1cc2c(cc1OC)C(Cc1ccc3c(c1)OCO3)N(C)CC2 (stereo unspecified) | 90.8 | 5 | – |
| COc1cc(CC2c3cc(OC)c(OC)cc3CCN2C)ccc1O (stereo unspecified) | 90.3 | 2.8 | – |
| COc1cc2c(cc1OC)C(C)N(C)CC2 (stereo unspecified) | 91.1 | 2.6 | – |
| COc1cc2c(cc1OC)C(Cc1ccc(C(F)(F)F)cc1)N(C)CC2 (stereo unspecified) | 91.7 | 3.5 | – |
| COc1cc2c(cc1OC)C(CC1CCCCC1)N(C)CC2 (stereo unspecified) | 89.9 | 3.7 | – |
| COc1cc2c(cc1OC)C(Cc1ccccc1O)N(C)CC2 (stereo unspecified) | 98.9 | 7.1 | – |
| COc1cc2c(cc1OC)C(Cc1ccc([N+](=O)[O-])cc1)N(C)CC2 (stereo unspecified) | 87.1 | 2.3 | – |
| COc1cc2c(cc1OC)CN(CCc1ccc(NC(=O)c3cc(OC)c(OC)cc3NC(=O)c3cnc4ccccc4c3)cc1)CC2 [TARIQUIDAR] | 85.9 | 187.4 | Activity [6]: Active |
| COc1ccc(CC2c3cc(OC)c(OC)cc3CCN2C)cc1O (stereo unspecified) | 903 | 2.5 | – |
| COc1cc2c(cc1OC)C(Cc1ccc(C)cc1)N(C)CC2 (stereo unspecified) | 95.9 | 4.5 | – |
| CN1CCc2ccccc2C1=O | 91.3 | 2.5 | – |
| COc1cc2c(cc1OC)C(Cc1ccc(Br)cc1)N(C)CC2 (stereo unspecified) | 92.8 | 1.6 | – |
| COc1cc2c(cc1OC)C(Cc1ccc(I)cc1)N(C)CC2 (stereo unspecified) | 99 | 2.9 | – |
| COc1cc2c(cc1OC)C(Cc1ccc(OC)c(OCCC(C)C)c1)N(C)CC2 (stereo unspecified) | 87.1 | 205.7 | – |
| COc1cc2c(cc1OC)C(Cc1ccc(F)cc1)N(C)CC2 (stereo unspecified) | 99.3 | 2.8 | – |
| COc1ccc(CC2c3cc(OC)c(OC)cc3CCN2C)cc1 (stereo unspecified) | 96.3 | 7.4 | – |
| COc1cc2c(cc1OC)C(c1ccc(O)cc1)N(C)CC2 (stereo unspecified) | 87.7 | 1.8 | – |
| COc1ccc2cc1Oc1ccc(cc1)C[C@H]1c3cc(c(OC)cc3CCN1C)Oc1c(OC)c(OC)cc3c1[C@H](C2)N(C)CC3 [FANCHININ] | 87.1 | 232.6 | solubility thermodynamic [7]: 14.6 µg/mL (≈ 23.4 µM); IC50 [3]: 29.4 nM; fold change (FC) [4]: 232.6; viability at 5 µM [8]: 88.2%; Activity [9]: 3.68%; Activity [10]: 8.01%; Activity [11]: 0.15%; viability at 5 µM [12]: 67.5%; Activity [13]: 18.8%; Activity [14]: 13.1%; Activity [15]: 0.54% |
| COc1ccc(CCN(C)CCCC(C#N)(c2ccc(OC)c(OC)c2)C(C)C)cc1OC (stereo unspecified) [VERAPAMIL] | 95.6 | 10.1 | IC50 [3]: 679 nM; fold change (FC) [4]: 10.1; viability at 5 µM [8]: 89.3%; Activity [9]: 2.65%; Activity [10]: 7.92%; Activity [11]: 0.12%; viability at 5 µM [12]: 68.8%; Activity [13]: 20.3%; Activity [14]: 10.5%; Activity [15]: 0.48% |
| COc1cc2c(cc1OC)C(Cc1ccc(Cl)cc1)N(C)CC2 (stereo unspecified) | 93 | 8.6 | – |
